These results are taken from US12571764B2, “Receptor-based biosensors” (STATE OF ISRAEL, MINISTRY OF AGRICULTURE & RURAL …, priority 2020, dated 2026).

The subject of data set [1] is Toxorhynchites amboinensis OR8 (TaOR8). Briefly: Activation of mosquito odorant receptor OR8 from Toxorhynchites amboinensis (TaOR8), FIG. 17A. It is filed as cell-based. The conditions noted are these: molar concentration, read-out: T. amboinensis OR8 (TaOR8) EC50. From the text: (§1) FIG. 17B-OR8 is an enantioselective octenol receptor, distinguishing between the (R)-enantiomer, which is the most abundant form in nature, and the(S)-enantiomer.
(§2) Orco expression, electrophysiology and purification. Supply of Orco-rich membranes will be predicated on the functional validation carried out using the two-electrode voltage clamp of Xenopus oocytes expressing this receptor. Expression and recordation of the pharmacological activity of mosquito odorant receptor complexes (ORx-Orco) in Xenopus oocytes has been studies extensively. This technique to study the agonist activity of Orco agonists (e.g., VUAA1) and antagonists (e.g., octadienal and carvacrol) (as shown in FIG. 4A) or associated with ORx has been achieved. In some cases Orco rather than ORx was used in order to reduce potential pitfalls associated with OR complexes. In some cases, ORx alone is not functional without its co-receptor chaperone. Two types of expression vectors adapted to Xenopus oocyte expression are used. pSP64DV was used to record currents reaching over 1 μA from Orco exposed to VUAA1, indicating high protein levels (FIG. 4B). […] This plasmid functions well in Xenopus oocytes and adds a constitutively fluorescent mKate2 tag on the C-terminus of the protein of interest (here Orco) that can be directly or indirectly (fluorescence immunohistochemistry) detected by confocal scanning laser microscopy. […]

For data set [2], the target named is T1, Aedes aegypti OR8 (AaOR8) (Aedes aegypti, UniProt Q16MN0).
T1 sequence (Q16MN0 1-422): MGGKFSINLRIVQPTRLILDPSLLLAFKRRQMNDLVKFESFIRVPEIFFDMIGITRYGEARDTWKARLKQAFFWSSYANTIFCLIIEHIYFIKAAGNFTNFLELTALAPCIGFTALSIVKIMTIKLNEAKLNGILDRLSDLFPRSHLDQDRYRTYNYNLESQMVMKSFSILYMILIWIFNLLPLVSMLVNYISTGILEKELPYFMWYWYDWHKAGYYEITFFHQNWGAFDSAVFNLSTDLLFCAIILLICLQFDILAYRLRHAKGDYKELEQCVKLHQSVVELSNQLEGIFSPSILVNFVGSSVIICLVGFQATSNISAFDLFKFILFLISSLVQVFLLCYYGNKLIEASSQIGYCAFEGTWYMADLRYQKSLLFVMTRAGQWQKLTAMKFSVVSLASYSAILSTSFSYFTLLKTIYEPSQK
T1 sequence (Q178U6 1-478 partner): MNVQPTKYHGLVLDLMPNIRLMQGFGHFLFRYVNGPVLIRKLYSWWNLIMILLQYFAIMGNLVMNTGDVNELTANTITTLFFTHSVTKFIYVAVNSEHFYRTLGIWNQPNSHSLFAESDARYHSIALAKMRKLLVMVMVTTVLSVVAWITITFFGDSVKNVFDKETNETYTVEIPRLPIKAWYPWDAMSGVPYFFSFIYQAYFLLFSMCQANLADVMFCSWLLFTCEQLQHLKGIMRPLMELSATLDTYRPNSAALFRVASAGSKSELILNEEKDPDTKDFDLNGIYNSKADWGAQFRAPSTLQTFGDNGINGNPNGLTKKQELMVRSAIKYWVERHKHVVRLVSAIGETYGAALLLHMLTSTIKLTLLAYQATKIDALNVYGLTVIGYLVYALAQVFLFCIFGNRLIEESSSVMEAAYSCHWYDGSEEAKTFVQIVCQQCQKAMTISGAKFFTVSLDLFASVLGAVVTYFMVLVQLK
Briefly: Activation of mosquito odorant receptor OR8 from Aedes aegypti (AaOR8), FIG. 17A. It is filed as cell-based. The conditions noted are these: molar concentration, read-out: A. agypti OR8 EC50.
Source text: as §1, §2

Data set [3] deals with mosquito odorant receptors known as OR8. The data set can be described thus: mosquito odorant receptor OR8 activation and odorant tuning. It is filed as cell-based. The conditions noted are these: FIG. 17A. The text has this: (§3) Indeed, any modifications of the double bond saturation, side chain length, chiral center position, or functional substitution of the (R)-1-octen-3-ol chemical structure is sufficient to prevent OR8 from being activated (FIG. 17B).
These studies established OR8 as a sensitive enantioselective odorant receptor, whose narrow odorant tuning is optimal in the nanomolar range, which is excellent in the field of receptor pharmacology. […] OR8 is the epitome of receptor selectivity, being able to reject any slight modification on the (R)-1-octen-3-ol backbone manifesting in complete activation shutdown (FIG. 17B). At a low concentration the receptor is specific to (R)-1-octen-3-ol (FIG. 17C), which is a desirable property for the purpose of using this receptor to detect early signs of microbial contamination or presence.

Data set [4] has as its system OR8 from Aedes aegypti (AaOR8). The data set can be described thus: mosquito odorant receptor 8 activation by odorants (AaOR8). It is filed as cell-based. The conditions noted are these: FIG. 17A.
Source text: as §1, §3

In data set [5] the test system is OR8 from Toxorhynchites amboinensis (TaOR8). Briefly: mosquito odorant receptor 8 activation by odorants (TaOR8). The conditions noted are these: FIG. 17A. It is filed as cell-based.
Source text: as §1, §3

Data set [6] concerns the target T2, Aedes aegypti Orco (Aedes aegypti, UniProt Q178U6).
T2 construct: expressed in transfected cells; host or cells: Xenopus oocytes injected with capped Orco RNA from linearized pSP64DV
T2 sequence (Q178U6 1-478): T1 sequence (Q178U6 1-478 partner)
The data set can be described thus: two-electrode voltage clamp of Xenopus oocytes expressing Orco. It is filed as cell-based. The conditions noted are these: for effect on VUAA1-activated Orco: oocytes expressing Aedes aegypti Orco, 2.10-4 M VUAA1 with equimolar concentration of antagonist. The text has this:
FIG. 4A-Chemical structures of tested compounds. FIG. 4B-Representative current traces of oocytes expressing Aedes aegypti Orco following exposure to 2.10-4 M VUAA1 alone or in combination with equimolar concentrations of the antagonists octadienal and carvacrol. FIG. 4C-Normalized responses of AaegOrco to VUAA1 alone or in combination with octadienal or carvacrol. Odorants effects were statistically significant (one-way ANOVA followed by Tukey's post-test; P<0.0001; mean responses+s.e.m.; VUAA1 alone, n=7; octadienal & carvacrol n=6).
Orco expression, electrophysiology and purification. Supply of Orco-rich membranes will be predicated on the functional validation carried out using the two-electrode voltage clamp of Xenopus oocytes expressing this receptor. Expression and recordation of the pharmacological activity of mosquito odorant receptor complexes (ORx-Orco) in Xenopus oocytes has been studies extensively. This technique to study the agonist activity of Orco agonists (e.g., VUAA1) and antagonists (e.g., octadienal and carvacrol) (as shown in FIG. 4A) or associated with ORx has been achieved. In some cases Orco rather than ORx was used in order to reduce potential pitfalls associated with OR complexes. In some cases, ORx alone is not functional without its co-receptor chaperone. Two types of expression vectors adapted to Xenopus oocyte expression are used. pSP64DV was used to record currents reaching over 1 μA from Orco exposed to VUAA1, indicating high protein levels (FIG. 4B). Considering the objective to extract Orco-rich membrane fragments less than <50 nm in length, receptor density should be sufficient to ensure that these short fragments contain Orco. To evaluate Orco density, this gene was expressed using the pCMV6-AC-mKate expression vectors (Origene), or other tagged version. This plasmid functions well in Xenopus oocytes and adds a constitutively fluorescent mKate2 tag on the C-terminus of the protein of interest (here Orco) that can be directly or indirectly (fluorescence immunohistochemistry) detected by confocal scanning laser microscopy. […]

Data set [7] has as its target OR2 (Anopheles gambiae, UniProt Q8WTE6). The conditions noted are these: background, based on cell-based assays; cited from earlier work.
The conditions of data set [8]: cited from earlier work.
Data set [9] concerns OR9/OR10. The conditions noted are these: background, based on cell-based assays; cited from earlier work.

Sequence of OR2 (Q8WTE6 whole entry, species assumed): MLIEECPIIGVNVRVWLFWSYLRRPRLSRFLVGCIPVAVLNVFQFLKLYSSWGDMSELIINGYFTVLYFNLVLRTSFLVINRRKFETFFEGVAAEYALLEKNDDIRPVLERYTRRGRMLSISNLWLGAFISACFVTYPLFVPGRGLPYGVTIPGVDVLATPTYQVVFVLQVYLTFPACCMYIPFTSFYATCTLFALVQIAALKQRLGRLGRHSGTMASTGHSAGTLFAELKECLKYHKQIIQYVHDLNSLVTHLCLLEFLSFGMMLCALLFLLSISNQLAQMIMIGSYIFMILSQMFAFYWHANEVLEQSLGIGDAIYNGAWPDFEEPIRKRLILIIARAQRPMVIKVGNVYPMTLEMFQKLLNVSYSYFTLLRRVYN
Sequence of OR2 (Q7QCC7 whole entry partner, species assumed): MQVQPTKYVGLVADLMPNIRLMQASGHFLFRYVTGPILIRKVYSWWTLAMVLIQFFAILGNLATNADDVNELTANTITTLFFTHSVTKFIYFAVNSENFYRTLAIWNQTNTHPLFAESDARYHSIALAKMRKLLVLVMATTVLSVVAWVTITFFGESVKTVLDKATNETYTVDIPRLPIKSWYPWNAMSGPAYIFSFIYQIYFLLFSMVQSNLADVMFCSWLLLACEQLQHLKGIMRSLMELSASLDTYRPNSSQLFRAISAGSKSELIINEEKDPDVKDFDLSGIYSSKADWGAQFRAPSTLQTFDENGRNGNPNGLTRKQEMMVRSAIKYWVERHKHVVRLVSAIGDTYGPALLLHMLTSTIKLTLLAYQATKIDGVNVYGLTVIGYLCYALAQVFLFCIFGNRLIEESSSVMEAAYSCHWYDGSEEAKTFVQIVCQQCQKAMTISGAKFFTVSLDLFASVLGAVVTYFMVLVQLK

On to `C=C[C@H](O)CCCCC` [(R)-1-Octen-3-ol, (R)-1-octen-3-ol], for which the EC50 (as a rule, the concentration giving half of the maximal effect) was determined as 401 nM in data set [1] and 213 nM in data set [2].
In the case of `C=C[C@H](O)CCCCC` [(R)-1-octen-3-ol], in [3], the “concentration range at which OR8 is activated” value was “parts per billion range”. Besides, the “sensitivity of AaOR8 (activating concentration range)” value in data set [4] is recorded as “parts per billion range”. The “sensitivity of TaOR8 (activating concentration range)” value in data set [5] is “parts per billion range”.
Consider `CCc1ccc(NC(=O)CSc2nnc(-c3cccnc3)n2CC)cc1` [VUAA1], for which the “currents recorded from Orco exposed to VUAA1” value in data set [6] (Xenopus oocytes, pSP64DV expression vector) is on record as “over 1 μA”.
For the compound `Cc1ccc(C(C)C)cc1O` [carvacrol], the “effect on VUAA1-activated Orco” value in data set [6] is recorded as “inhibit VUAA1-activated Orco”.
For `c1ccc2[nH]ccc2c1` [indole], the “concentration range of selective response of OR2” value in data set [7] is reported as “upper picomolar range”. Further, the solubility in water entry in data set [8] was “sparingly soluble”.
As for `Cc1c[nH]c2ccccc12` [skatole], in data set [8], the solubility in water result is on record as “sparingly soluble”. For the same compound, the “concentration range of selective response of OR9/OR10” value in [9] is “upper picomolar range”.
Take octadienal: the “effect on VUAA1-activated Orco” value in [6] is recorded as “inhibit VUAA1-activated Orco”.
